The source made the active and inactive calls.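 The calls were made as follows: active = more than half of replicate measurements showing over 20% loss of kinase signal relative to plate controls; inconclusive = some but at most half of replicates over 20% loss; inactive = no replicate over 20% signal loss.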
These compounds were tested against Glycogen synthase kinase-3 alpha (Homo sapiens) (UniProt P49840) (assay: concentration-response blocking of human GSK3A – biochemical, luminescence, cell-free homogeneous, retest, dose response (AID 463203)). Conditions: GSK-3 alpha enzyme, ADP-Glo luminescence, 60 min.
Glycogen synthase kinase-3 alpha (Homo sapiens), sequence (P49840 whole entry, looked up): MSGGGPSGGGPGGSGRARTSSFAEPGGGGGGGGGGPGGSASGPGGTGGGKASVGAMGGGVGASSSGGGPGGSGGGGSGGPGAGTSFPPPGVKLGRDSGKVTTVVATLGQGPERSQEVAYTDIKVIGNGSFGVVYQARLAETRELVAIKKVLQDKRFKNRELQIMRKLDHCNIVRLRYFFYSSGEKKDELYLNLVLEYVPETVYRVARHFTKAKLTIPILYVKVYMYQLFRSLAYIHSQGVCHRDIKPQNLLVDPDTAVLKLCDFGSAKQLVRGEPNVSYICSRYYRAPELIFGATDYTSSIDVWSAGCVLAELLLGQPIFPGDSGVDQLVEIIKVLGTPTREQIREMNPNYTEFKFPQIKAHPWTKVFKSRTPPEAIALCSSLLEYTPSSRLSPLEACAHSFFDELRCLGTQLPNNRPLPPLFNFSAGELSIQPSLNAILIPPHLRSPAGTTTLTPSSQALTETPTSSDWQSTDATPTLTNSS
For `O=c1oc2cc(O)ccc2c2ccccc12`, the AC50 was > 30 µM (inactive).
For `C=CCN1C(=O)/C(=C\c2ccco2)C(C(=O)OC)=C1C`, the AC50 was > 30 µM (inactive).
Work on `CCN=C1S/C(=C/c2ccc(-c3ccc(Cl)cc3C(=O)O)o2)C(=O)N1CC` yielded an AC50 of 4.3 µM.
With `Cc1occc1C(=O)N/N=C/c1ccc(N(C)C)cc1` the AC50 was 23.1 µM.
`O=C1CNC(=S)N1CCCn1ccnc1` was tested, and the AC50 was > 30 µM (inactive).
With `Cc1sc2ncnc(N3CCC(C(=O)Nc4ccc(C#N)cc4)CC3)c2c1C` the AC50 was > 30 µM (inactive).
`O=C1c2cnc3nc(SCc4cccc(Cl)c4)nn3c2CC2c3ccccc3CCN12` (configuration not stated) was tested, and the AC50 was > 30 µM (inactive).
In the case of `CCOC(=O)c1cnn(Cc2ccccc2Cl)c1N`, the AC50 is reported as > 30 µM (inactive).
For `CC1(C)CC(NC(=O)COc2ccccc2Cl)CC(C)(C)N1`, the AC50 was > 30 µM (inactive).
In the case of `CCC(=O)/C=C1\Sc2ccc(OC)cc2N1CCO`, the AC50 is reported as > 30 µM (inactive).
`CSc1nc2sc3c(c2c(=O)[nH]1)CCC(C)C3` (configuration not stated) was tested, and the AC50 was > 30 µM (inactive).
For `O=[N+]([O-])c1ccc(Nc2nc(Cl)nc(NCCO)n2)cc1`, the AC50 was > 30 µM (inactive).
For `CC(=O)Nc1ccc(NC(=O)CSc2nc3[nH]ncc3c(=O)n2-c2ccccc2)cc1`, the AC50 was > 30 µM (inactive).
`COc1ccccc1C(CNc1ccc(S(=O)(=O)N2CCCC2)cc1[N+](=O)[O-])N(C)C` (configuration not stated) was tested, and the AC50 was > 30 µM (inactive).
Work on `Cc1ccc(N(C)C(=O)C2CCCN2S(=O)(=O)c2cccc3nsnc23)cc1` (configuration not stated) yielded an AC50 of 29.8 µM.
For `CCCCOc1ccc(CSc2nc(C)[nH]c2[N+](=O)[O-])cc1[N+](=O)[O-]`, the AC50 was > 30 µM (inactive).
In the case of `COc1cc(NC(=O)c2cc([N+](=O)[O-])ccc2NC(=O)CNC2CCCCC2)cc(OC)c1`, the AC50 is reported as > 30 µM (inactive).
For `COCCNC(=O)Cn1cnc([N+](=O)[O-])n1`, the AC50 was > 30 µM (inactive).
`Cc1cc(NC(=O)c2cccc(S(=O)(=O)N3CC(c4ccccc4)CC3=O)c2)no1` (configuration not stated) was tested, and the AC50 was > 30 µM (inactive).
`Cc1c(C(=O)N/N=C/c2cccnc2)nnn1-c1nonc1N` was tested, and the AC50 was > 30 µM (inactive).
In the case of `O=[N+]([O-])c1ccc(NCCCN2CCOCC2)c(Cl)c1`, the AC50 is reported as > 30 µM (inactive).
`COc1ccc(N=Nc2c(C)n[nH]c2C)cc1` was tested, and the AC50 was > 30 µM (inactive).
`CC(C)(C)CNc1cc(N2CCCC2)ccc1[N+](=O)[O-]` was tested, and the AC50 was > 30 µM (inactive).
With `CCCc1c(C(=O)N/N=C/C(C)=C/c2ccco2)nnn1-c1nonc1N` the AC50 was > 30 µM (inactive).
With `COc1cc(O)c(NC(C)=O)c2nonc12` the AC50 was > 30 µM (inactive).
`COc1cc(/C=C2/S/C(=N/S(=O)(=O)Cc3ccccc3)NC2=O)c([N+](=O)[O-])cc1OC` was tested, and the AC50 was > 30 µM (inactive).
With `CC1(C)Cc2c(sc3c2C2=NCCN2C=N3)CS1` the AC50 was > 30 µM (inactive).
With `Cc1ccc(S(=O)(=O)CCSc2n[nH]c(=O)n2-c2ccccc2)cc1` the AC50 was 11.8 µM.
With `CSc1cccc(NC(=O)CN(C)S(=O)(=O)c2cnc[nH]2)c1` the AC50 was > 30 µM (inactive).
`N#Cc1c(Nc2ccccc2)c(/C=N/NCCO)c[nH]c1=O` was tested, and the AC50 was > 30 µM (inactive).
`O=C(COC(=O)CCc1ccc(S(=O)(=O)N2CCOCC2)cc1)Nc1ccc(Cl)cn1` was tested, and the AC50 was 28.4 µM.
With `COc1ccc(-c2c(C(C)=O)c(C)nc3sc4c(=O)[nH]nnc4c23)cc1` the AC50 was 30.1 µM.
For `O=C(Nc1cccc(-c2cnc3ccccc3n2)c1)c1ccncc1`, the AC50 was > 30 µM (inactive).
For `Cc1cccc(-c2nnc(SCc3nc4ccccc4[nH]3)n2Cc2ccco2)c1`, the AC50 was > 30 µM (inactive).
`CN(C(=O)Oc1ccc([N+](=O)[O-])cc1)c1ccccc1` was tested, and the AC50 was > 30 µM (inactive).
`COc1ccccc1Nc1ccc(S(=O)(=O)N2CCCCC2)cc1[N+](=O)[O-]` was tested, and the AC50 was > 30 µM (inactive).
For `O=C(CSc1cccc2cccnc12)N/N=C/c1ccc(O)cc1`, the AC50 was > 30 µM (inactive).
In the case of `O=C(c1ccco1)N(Cc1ccccc1)c1cccc([N+](=O)[O-])c1`, the AC50 is reported as > 30 µM (inactive).
In the case of `CC(C)COc1ncnc2c1sc1nc3c(cc12)COC(C)(C)C3`, the AC50 is reported as > 30 µM (inactive).
With `Clc1cccc(/C=N/Nc2ncnc3ccccc23)c1` the AC50 was > 30 µM (inactive).
For `COc1ccc(CCn2cnc(=O)c(C#N)c2C)cc1OC`, the AC50 was > 30 µM (inactive).
With `CC(C)CN(C(=O)CN1CC=C(c2ccccc2)CC1)c1c(N)n(CC(C)C)c(=O)[nH]c1=O` the AC50 was > 30 µM (inactive).
In the case of `COc1cc(C2CC(=O)c3c([nH]c(C(=O)OCCOC(C)C)c3C)C2)cc(OC)c1OC` (configuration not stated), the AC50 is reported as > 30 µM (inactive).
In the case of `N#Cc1c(-c2ccc(F)cc2)c2c([nH]c1=O)-c1ccccc1OC2`, the AC50 is reported as > 30 µM (inactive).
For `COc1ccc(CC(=O)N2CCOCC2)cc1OC`, the AC50 was > 30 µM (inactive).
For `O=C(Nc1ccsc1C(=O)O)c1ccccc1`, the AC50 was > 30 µM (inactive).
Work on `O=c1[nH]c(=O)n(CCC2=CCCCC2)c(O)c1C=NCCCn1ccnc1` yielded an AC50 of 28.6 µM.
In the case of `Cc1noc(C)c1CSc1nnc(-c2ccccc2)o1`, the AC50 is reported as > 30 µM (inactive).
For `COC(=O)c1c(NC(=O)Cc2cccs2)sc2c1CCCC2`, the AC50 was > 30 µM (inactive).
In the case of `COC(=O)C1=C(C)Nc2[nH]c(=S)[nH]c(=O)c2C1c1ccc(O)cc1` (configuration not stated), the AC50 is reported as > 30 µM (inactive).
With `COc1ccccc1Nc1nc2c(s1)CCC2` the AC50 was > 30 µM (inactive).
For `COc1ccccc1NC(=O)CSc1nnc(-c2ccccc2)o1`, the AC50 was > 30 µM (inactive).
